Measured values published in ChEMBL document CHEMBL5665443, “Enzyme Inhibitor Single Concentration assay results for EUbOPEN Chemogenomics Library” (2024).

Assays:
[1] = target: Methyl-CpG-binding domain protein 4 (Homo sapiens) (UniProt O95243); conditions: Hit No;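 further: MBD4 activity read as fluorescence at 594 nm from cleavage and release of a quenched duplex DNA oligonucleotide, with APE1 coupled to incise the strand and raise turnover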
Description: Inhibition of MBD4 by quantifying inhibition of MBD4-mediated cleavage and dissociation of quenched duplex DNA oligonucleotides, measured as fluorescence at 594 nm. To generate a functional strand incision and increase turn-over this assay is coupled to APE1.

[2] = target: Uracil-DNA glycosylase (Homo sapiens) (UniProt P13051); conditions: Hit No;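 further: UNG excision on a quenched double-stranded DNA oligo probe, with APE1 added for strand incision and turnover, read as fluorescence at 594 nm as strands separate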
Chain of Uracil-DNA glycosylase (Homo sapiens) (P13051 whole entry): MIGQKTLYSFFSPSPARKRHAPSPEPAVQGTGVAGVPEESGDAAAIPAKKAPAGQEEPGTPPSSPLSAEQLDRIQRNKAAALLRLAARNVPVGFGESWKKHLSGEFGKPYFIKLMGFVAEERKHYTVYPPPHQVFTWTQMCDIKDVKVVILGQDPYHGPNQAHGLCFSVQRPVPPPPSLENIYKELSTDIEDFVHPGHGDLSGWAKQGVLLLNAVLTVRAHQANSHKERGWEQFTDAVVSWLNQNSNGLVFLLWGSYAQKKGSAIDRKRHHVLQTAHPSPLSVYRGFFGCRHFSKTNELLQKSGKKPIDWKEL
Description: Inhibition of UNG by quantifying inhibition of UNG-mediated cleavage and dissociation of quenched duplex DNA oligonucleotides, measured as fluorescence at 594 nm. To generate a functional strand incision and increase turn-over this assay is coupled to APE1.

[3] = target: T1, Single-strand selective monofunctional uracil DNA glycosylase (Homo sapiens) (UniProt Q53HV7); conditions: Hit No;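 further: enzymatic SMUG1 assay coupled with APE1, reading fluorescence at 594 nm released when a quenched double-stranded DNA oligonucleotide substrate is cleaved and separated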
T1 sequence (whole entry): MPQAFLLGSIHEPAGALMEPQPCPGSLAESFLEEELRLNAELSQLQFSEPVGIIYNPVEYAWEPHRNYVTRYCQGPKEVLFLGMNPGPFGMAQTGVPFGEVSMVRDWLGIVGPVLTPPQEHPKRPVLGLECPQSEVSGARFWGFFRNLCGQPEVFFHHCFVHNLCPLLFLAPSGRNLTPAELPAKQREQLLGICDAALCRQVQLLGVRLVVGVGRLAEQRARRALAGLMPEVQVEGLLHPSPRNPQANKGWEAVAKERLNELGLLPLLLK
Description: Inhibition of SMUG1 by quantifying inhibition of SMUG1-mediated cleavage and dissociation of quenched duplex DNA oligonucleotides, measured as fluorescence at 594 nm. To generate a functional strand incision and increase turn-over this assay is coupled to APE1.

[4] = target: T2, Adenine DNA glycosylase (Homo sapiens) (UniProt Q9UIF7); conditions: Hit No;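 further: human MUTYH activity read as 594 nm fluorescence from cleavage and release of a quenched DNA duplex, coupled with APE1 for strand incision, lower signal meaning inhibition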
T2 sequence (whole entry): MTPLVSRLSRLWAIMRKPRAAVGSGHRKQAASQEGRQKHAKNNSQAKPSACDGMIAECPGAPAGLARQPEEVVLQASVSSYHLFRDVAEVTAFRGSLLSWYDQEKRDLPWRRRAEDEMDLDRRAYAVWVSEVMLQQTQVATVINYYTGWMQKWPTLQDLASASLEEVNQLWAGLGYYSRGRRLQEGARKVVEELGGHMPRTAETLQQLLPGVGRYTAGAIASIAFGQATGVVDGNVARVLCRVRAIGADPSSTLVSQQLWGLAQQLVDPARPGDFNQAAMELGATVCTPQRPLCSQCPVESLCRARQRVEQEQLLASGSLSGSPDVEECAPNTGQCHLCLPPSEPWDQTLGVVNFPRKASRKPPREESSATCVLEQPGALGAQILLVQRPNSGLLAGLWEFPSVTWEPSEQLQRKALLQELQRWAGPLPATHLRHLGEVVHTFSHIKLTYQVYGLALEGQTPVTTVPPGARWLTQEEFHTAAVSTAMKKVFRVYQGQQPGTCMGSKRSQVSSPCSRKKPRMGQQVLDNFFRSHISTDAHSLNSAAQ
Description: Inhibition of MUTYH by quantifying inhibition of MUTYH-mediated cleavage and dissociation of quenched duplex DNA oligonucleotides, measured as fluorescence at 594 nm. To generate a functional strand incision and increase turn-over this assay is coupled to APE1.

[5] = target: T3, Endonuclease 8-like 2 (Homo sapiens) (UniProt Q969S2);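 further: fluorescence at 594 nm reports NEIL2 cutting and release of a quenched double-stranded DNA oligo substrate, reduced signal read as inhibition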
T3 sequence (whole entry): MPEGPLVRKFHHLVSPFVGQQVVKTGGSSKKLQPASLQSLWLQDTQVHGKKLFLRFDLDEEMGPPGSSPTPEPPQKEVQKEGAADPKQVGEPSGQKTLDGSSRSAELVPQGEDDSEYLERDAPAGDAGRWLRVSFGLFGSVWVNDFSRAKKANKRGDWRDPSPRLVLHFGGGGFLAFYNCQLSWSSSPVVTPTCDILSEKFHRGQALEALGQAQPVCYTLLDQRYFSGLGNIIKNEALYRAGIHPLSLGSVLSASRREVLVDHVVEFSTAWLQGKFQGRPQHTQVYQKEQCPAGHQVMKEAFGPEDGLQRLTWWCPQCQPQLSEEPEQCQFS
Description: Inhibition of NEIL2 by quantifying inhibition of NEIL2-mediated cleavage and dissociation of quenched duplex DNA oligonucleotides, measured as fluorescence at 594 nm.

[6] = target: N-glycosylase/DNA lyase (Homo sapiens) (UniProt O15527); conditions: Hit No;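 further: OGG1 cleavage of a quenched duplex DNA oligonucleotide, coupled to APE1 for strand incision, read as fluorescence at 594 nm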
Chain of N-glycosylase/DNA lyase (Homo sapiens) (O15527 whole entry): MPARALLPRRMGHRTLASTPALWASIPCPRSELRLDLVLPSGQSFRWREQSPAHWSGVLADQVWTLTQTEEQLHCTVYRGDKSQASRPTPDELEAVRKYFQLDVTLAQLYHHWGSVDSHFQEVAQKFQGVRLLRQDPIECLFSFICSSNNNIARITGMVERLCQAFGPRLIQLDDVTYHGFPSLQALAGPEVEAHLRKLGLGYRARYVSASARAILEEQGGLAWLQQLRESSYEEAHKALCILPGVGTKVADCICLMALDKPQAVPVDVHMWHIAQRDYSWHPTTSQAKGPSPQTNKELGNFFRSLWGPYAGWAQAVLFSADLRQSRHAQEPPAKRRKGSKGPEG
Description: Inhibition of OGG1 by quantifying inhibition of OGG1-mediated cleavage and dissociation of quenched duplex DNA oligonucleotides, measured as fluorescence at 594 nm. To generate a functional strand incision and increase turn-over this assay is coupled to APE1.

[7] = target: G/T mismatch-specific thymine DNA glycosylase (Homo sapiens) (UniProt Q13569); conditions: Hit No;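 further: human TDG cleavage of quenched duplex DNA oligonucleotides coupled to APE1, strand release read as fluorescence at 594 nm, inhibition of TDG activity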
Chain of G/T mismatch-specific thymine DNA glycosylase (Homo sapiens) (Q13569 whole entry): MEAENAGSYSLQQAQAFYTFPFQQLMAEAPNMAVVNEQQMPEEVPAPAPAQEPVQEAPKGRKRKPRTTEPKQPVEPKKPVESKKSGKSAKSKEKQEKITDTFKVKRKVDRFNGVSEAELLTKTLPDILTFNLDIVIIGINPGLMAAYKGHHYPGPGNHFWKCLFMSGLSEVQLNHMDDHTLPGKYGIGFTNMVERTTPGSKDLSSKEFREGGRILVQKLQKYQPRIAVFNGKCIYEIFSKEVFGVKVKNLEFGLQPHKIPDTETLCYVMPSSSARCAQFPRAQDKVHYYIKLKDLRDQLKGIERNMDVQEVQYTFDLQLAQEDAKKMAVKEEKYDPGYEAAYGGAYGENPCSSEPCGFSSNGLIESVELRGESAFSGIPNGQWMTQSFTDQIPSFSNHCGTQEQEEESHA
Description: Inhibition of TDG by quantifying inhibition of TDG-mediated cleavage and dissociation of quenched duplex DNA oligonucleotides, measured as fluorescence at 594 nm. To generate a functional strand incision and increase turn-over this assay is coupled to APE1.

[8] = target: Endonuclease 8-like 1 (Homo sapiens) (UniProt Q96FI4); conditions: Hit No;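 further: fluorescence at 594 nm from quenched duplex DNA oligonucleotides released by NEIL1 cleavage and strand separation, reported as reduction of this enzyme activity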
Chain of Endonuclease 8-like 1 (Homo sapiens) (Q96FI4 whole entry): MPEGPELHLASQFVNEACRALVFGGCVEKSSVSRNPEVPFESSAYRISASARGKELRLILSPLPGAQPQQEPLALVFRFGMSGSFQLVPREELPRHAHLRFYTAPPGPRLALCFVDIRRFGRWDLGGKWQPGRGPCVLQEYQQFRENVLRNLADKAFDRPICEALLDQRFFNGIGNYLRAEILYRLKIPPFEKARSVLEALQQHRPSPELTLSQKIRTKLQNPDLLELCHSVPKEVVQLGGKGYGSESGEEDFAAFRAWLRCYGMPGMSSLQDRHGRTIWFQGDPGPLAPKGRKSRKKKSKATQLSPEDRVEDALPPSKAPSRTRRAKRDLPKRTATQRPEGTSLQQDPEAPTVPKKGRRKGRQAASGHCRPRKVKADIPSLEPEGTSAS
Description: Inhibition of NEIL1 by quantifying inhibition of NEIL1-mediated cleavage and dissociation of quenched duplex DNA oligonucleotides, measured as fluorescence at 594 nm.

[9] = Compound Concentration 10.0 uM, Hit No
[10] = Compound Concentration 1.0 uM, Hit No

Chain of Methyl-CpG-binding domain protein 4 (Homo sapiens) (O95243 whole entry, the tested form may be a part): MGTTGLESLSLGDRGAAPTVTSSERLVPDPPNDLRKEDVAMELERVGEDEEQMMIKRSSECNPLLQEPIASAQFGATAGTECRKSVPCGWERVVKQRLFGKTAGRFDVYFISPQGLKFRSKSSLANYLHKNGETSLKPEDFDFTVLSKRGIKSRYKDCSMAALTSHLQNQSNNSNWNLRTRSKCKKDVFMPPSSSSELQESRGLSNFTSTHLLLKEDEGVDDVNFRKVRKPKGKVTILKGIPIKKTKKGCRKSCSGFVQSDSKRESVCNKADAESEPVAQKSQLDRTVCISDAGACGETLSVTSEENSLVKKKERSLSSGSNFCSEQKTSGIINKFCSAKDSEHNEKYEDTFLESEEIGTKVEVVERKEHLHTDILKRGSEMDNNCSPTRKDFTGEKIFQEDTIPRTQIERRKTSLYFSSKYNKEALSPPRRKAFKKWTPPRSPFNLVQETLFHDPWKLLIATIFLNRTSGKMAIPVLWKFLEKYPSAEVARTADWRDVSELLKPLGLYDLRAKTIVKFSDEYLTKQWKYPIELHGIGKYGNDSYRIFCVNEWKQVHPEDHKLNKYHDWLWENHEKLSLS

SMILES | inhibition ([1]; Compound Concentration 10.0 uM) | inhibition ([2]; Compound Concentration 10.0 uM) | inhibition ([3]; Compound Concentration 10.0 uM) | inhibition ([4]; Compound Concentration 10.0 uM) | inhibition [5, 9] | inhibition ([6]; Compound Concentration 10.0 uM) | inhibition ([7]; Compound Concentration 10.0 uM) | inhibition ([8]; Compound Concentration 10.0 uM) | inhibition ([1]; Compound Concentration 1.0 uM) | inhibition ([2]; Compound Concentration 1.0 uM) | inhibition ([3]; Compound Concentration 1.0 uM) | inhibition [5, 10] | inhibition ([6]; Compound Concentration 1.0 uM) | inhibition ([7]; Compound Concentration 1.0 uM) | inhibition ([8]; Compound Concentration 1.0 uM) | inhibition ([4]; Compound Concentration 1.0 uM) | inhibition ([5]; Compound Concentration 10.0 uM, Hit Yes)
O=C(Nc1ccc(C(O)(C(F)(F)F)C(F)(F)F)cc1)c1ccc(C(F)(F)F)cc1 | 54.8% | 11.1% | 23.5% | 3.77% | -7.89% | 30.3% | 98% | -5.59% |  |  |  |  |  |  |  |  | 
Nc1c(C(=O)NCc2ccc(C(=O)NCCCC3CCCCC3)cc2)cnn1-c1ccccc1 |  | 4.78% | -1.31% | 5.04% |  | 19.8% | 35.6% |  | 59.9% | -7.24% | 3.4% | -8.91% | 3.23% | 47% | -2.11% |  | 
Cn1cc(Nc2nccc(N3CC4CCC(C3)N4C(=O)[C@@H]3CC3(F)F)n2)cn1 | -6.61% | -0.791% | 8.21% | -8.86% | -8.92% | -0.945% | 35.9% | 0.138% |  |  |  |  |  |  |  |  | 
COc1cc2ncn(-c3cc(OCc4ccccc4C(F)(F)F)c(C(N)=O)s3)c2cc1OC |  |  |  |  |  |  |  |  | 6.17% | 3.27% | 10.2% | -8.65% | 0.727% | 35.1% | -7% | -6.25% | 
CC(=O)c1c(C)c2cnc(Nc3ccc(N4CCNCC4)cn3)nc2n(C2CCCC2)c1=O |  |  |  |  |  |  |  |  | -1.7% | 3.08% | 19.2% | 2.12% | 4.49% | 39.5% | 8.59% | 37.5% | 
Cc1nc(C#Cc2cccnc2)cs1 | -0.814% | -6.91% | -8.43% | 5.76% | -1.88% | -7.91% | 4.62% | 1.49% |  |  |  |  |  |  |  |  | 
COc1cc(-c2cncc(-c3ccc(N4CCN(C(C)C)CC4)cc3)c2C)cc(F)c1C(N)=O | 0.764% | 5.22% | 31.3% | -6.43% | 1.85% | 10.3% | 38.5% | 5.68% |  |  |  |  |  |  |  |  | 
CN1CCN(c2cnc3c(C4CCN(C(=O)c5ccc(OC(F)(F)F)cc5N)CC4)ncnc3c2)CC1 | 22.6% | 5.02% | 11.7% | 2.58% | -8.19% | -1.54% | 43.6% | -2.58% |  |  |  |  |  |  |  |  | 
CNC(=O)Nc1ccc2c(c1)[C@@]1(CC2)OC(=O)N(CC(=O)N(Cc2ccc(F)cc2)[C@@H](C)C(F)(F)F)C1=O |  |  |  |  |  |  |  |  | 67.4% | 4.4% | 22.4% | -2.53% | -0.951% | 98.8% | -6.35% | 0.0592% | 
CCOC(=O)c1cc2cc(-c3cc(C(=O)NCc4ccc(C(=O)O)cc4)nn3C)ccc2[nH]1 |  |  |  |  |  |  |  |  | 61% | -2.54% | 6.69% | 11.2% | 9.53% | 41.7% | -4.68% | -1.36% | 
O=C(Nc1nc2cccc(-c3ccc(CN4CCS(=O)(=O)CC4)cc3)n2n1)C1CC1 | -0.894% | 2.98% | 27.3% | 3.59% | -1.92% | 1.15% | 66.4% | -4.22% |  |  |  |  |  |  |  |  | 
O=C(N[C@H]1CCCCC/C=C\C2C[C@@]2(C(=O)O)NC(=O)[C@@H]2C[C@@H](Oc3ccncc3)CN2C1=O)OC1CCCC1 (stereo partly specified) | 61.8% | 4.34% | 20% | 1.97% | -0.999% | 25.2% | 61.5% | 2.74% |  |  |  |  |  |  |  |  | 
Cc1nc(Cc2cccc(C(F)(F)F)c2)sc1-c1ccc(C(N)=O)nc1 |  |  |  |  |  |  |  |  | 52% | -0.747% | 6% | -3.29% | 0.0328% | 96.5% | -5.59% | -2.4% | 
CC[C@H](CO)Nc1nc(NCc2ccccc2)c2ncn(C(C)C)c2n1 | -1.52% | 0.726% | -5.13% | -2.91% | -5.42% | -9.3% | 38.4% | 6.48% |  |  |  |  |  |  |  |  | 
CNCc1ccccc1-c1csc([C@@H](C)Nc2nc(C)nc3cc(OC)c(OC)cc23)c1 | 8.88% | 14.2% | 5.31% | 19.2% |  | 16.5% | 66.2% | -5.89% |  |  |  |  |  |  |  |  | 38%
Nc1nc(NCc2ccccc2)nc(-c2ccccc2CO)n1 | 61.2% | 2.12% | -2.01% | -3% | 5.12% | 4.21% | 52% | -7.11% |  |  |  |  |  |  |  |  | 
N[C@@H]1CCCN(c2c(/C=C3\SC(=O)NC3=O)cccc2-c2ccccc2)C1 |  |  |  |  |  |  |  |  | 5.7% | 7.16% | 28.4% | 1.04% | 16.9% | 64.1% | -5.54% | 3.22% | 
OCCOCCN1CCN(C(c2ccccc2)c2ccc(Cl)cc2)CC1 (stereo unspecified) | 1.54% | -3.83% | 2.34% | -3.56% | -2.98% | -2.03% | 3.31% | 4.39% |  |  |  |  |  |  |  |  | 
Cc1cc(-c2ccnc(Nc3cnn(C)c3)n2)ccc1CNC(=O)N1CC(OC(C)C)C1 | 12.6% | 4.16% | 28.1% | 22.5% | -6.23% | 9.56% | 44.6% | -3.03% |  |  |  |  |  |  |  |  | 
N#CN1CC[C@@H](C(=O)Nc2nc3c(s2)CN(C(=O)CN=[N+]=[N-])CC3)C1 | 54.3% | 4.95% | 2.3% | -2.56% | -7.63% | 3.62% | 50.9% | 6.22% |  |  |  |  |  |  |  |  | 
CCC(C)N(C)C(=O)c1cc2ccccc2c(-c2ccccc2Cl)n1 (stereo unspecified) | 67% | 7.72% | 22.8% | 1.15% | 3.59% | 15.1% | 99.2% | -9.53% |  |  |  |  |  |  |  |  | 
CC1CCN(c2ccnc(NCc3cn(C)cn3)n2)CC1 | 67.6% | 5.91% | 15.3% | 19.8% | 3.08% | 19.9% | 50.4% | 1.98% |  |  |  |  |  |  |  |  | 
O=S(=O)(Nc1ccc(C(O)(C(F)(F)F)C(F)(F)F)cc1)c1cccs1 | 63.6% | 4.47% | 19.9% | 12.6% | -2.02% | 9.18% | 99.8% | -9.23% |  |  |  |  |  |  |  |  | 
O=C(NC[C@@H]1[C@H]2CN(C(=O)OCc3cc(C(F)(F)F)cc(C(F)(F)F)c3)C[C@@H]12)c1ccc2[nH]nnc2c1 | 48.7% | -1.24% | 8.85% | -6.99% | -6.36% | 19.9% | 43.8% | -8.32% |  |  |  |  |  |  |  |  | 
Nc1cnc(N2CCc3cc(S(=O)(=O)Nc4c(F)cc(Cl)cc4F)cc(N4CCCC4=O)c32)nc1 |  |  |  |  |  |  |  |  | 55.9% | -1.59% | 6.61% | -0.999% | 0.18% | 41.3% | -8.47% | -0.378% | 
CCS(=O)(=O)c1cc2cc(C[C@@](O)(CC(C)(C)c3ccc(F)cc3C(N)=O)C(F)(F)F)[nH]c2cn1 |  |  |  |  |  |  |  |  | 66.5% | -1.88% | 5.35% | -6.61% | -3.12% | 28.1% |  | -2.67% | 
